In patent US10780090B2, “Heteroaryl compounds useful as inhibitors of SUMO activating enzyme” (Millennium Pharmaceuticals, Inc., priority 2014, dated 2020):

Target: recombinant human SAE enzyme (Homo sapiens (Human), UniProt Q9UBT2)
Test: SAE HTRF enzyme assay
Assay type: biochemical
Conditions: for Percent Inhibition: SAE inhibition at compound concentration 0.111 μM; for IC50: SAE inhibition, class symbols, legend in nM
How it was run: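 Enzyme reaction: 50 mM HEPES pH 7.5, 5 mM MgCl2, 250 μM GSH, 0.05% BSA, 0.5 μM ATP, 0.01 μM Ubc9-GST, 0.125 μM Sumo-Flag, 0.11 nM SAE; 105 min, 24° C. Stop/detect, 2 h, then HTRF. % inh or IC50.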

Chain of recombinant human SAE enzyme (Q9UBT2 whole entry): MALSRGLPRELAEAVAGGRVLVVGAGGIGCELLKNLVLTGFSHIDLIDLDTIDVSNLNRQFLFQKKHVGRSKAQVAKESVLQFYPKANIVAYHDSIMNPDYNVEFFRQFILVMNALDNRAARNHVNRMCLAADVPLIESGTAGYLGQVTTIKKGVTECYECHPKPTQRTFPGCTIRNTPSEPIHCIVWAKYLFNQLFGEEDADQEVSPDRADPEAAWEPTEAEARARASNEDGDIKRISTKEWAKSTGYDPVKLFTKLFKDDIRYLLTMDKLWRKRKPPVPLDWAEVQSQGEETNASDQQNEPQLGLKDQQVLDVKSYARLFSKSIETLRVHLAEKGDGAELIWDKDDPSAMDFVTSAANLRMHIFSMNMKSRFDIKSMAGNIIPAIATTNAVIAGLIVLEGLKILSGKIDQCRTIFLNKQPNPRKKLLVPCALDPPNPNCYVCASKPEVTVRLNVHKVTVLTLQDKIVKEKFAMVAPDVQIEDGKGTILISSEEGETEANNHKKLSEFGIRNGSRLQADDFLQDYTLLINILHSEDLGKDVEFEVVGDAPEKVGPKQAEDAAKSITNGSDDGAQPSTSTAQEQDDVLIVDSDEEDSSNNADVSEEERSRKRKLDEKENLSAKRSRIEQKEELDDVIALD
Chain of recombinant human SAE enzyme (Q9UBE0 whole entry partner): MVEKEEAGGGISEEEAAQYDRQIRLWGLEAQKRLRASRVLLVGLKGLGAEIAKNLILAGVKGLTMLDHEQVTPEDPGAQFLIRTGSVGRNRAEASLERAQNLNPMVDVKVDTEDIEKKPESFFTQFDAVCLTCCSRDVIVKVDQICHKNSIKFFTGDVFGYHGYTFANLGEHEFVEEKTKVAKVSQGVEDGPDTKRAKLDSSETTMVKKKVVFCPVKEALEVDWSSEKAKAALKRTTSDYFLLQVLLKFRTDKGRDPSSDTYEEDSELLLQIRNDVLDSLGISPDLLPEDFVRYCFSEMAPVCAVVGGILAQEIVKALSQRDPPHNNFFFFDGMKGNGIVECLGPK

Structure (SMILES) | Percent Inhibition [%] | IC50 [nM]
NS(=O)(=O)OC[C@H]1C[C@@H](Nc2ncncc2C(=O)c2cc([C@@H]3OCc4ccc(Cl)cc43)c(Cl)s2)C[C@@H]1O (single isomer, unassigned) [I-310a, [(1R,2S,4R)-4-{[5-({5-chloro-4-[(1R)-6-chloro-1,3-dihydro-2-benzofuran-1-yl]-2-thienyl}carbonyl)pyrimidin-4-yl]amino}-2-hydroxycyclopentyl]methyl sulfamate or [(1R,2S,4R)-4-{[5-({5-chloro-4-[(1S)-6-chloro-1,3-dihydro-2-benzofuran-1-yl]-2-thienyl}carbonyl)pyrimidin-4-yl]amino}-2-hydroxycyclopentyl]methyl sulfamate] | 27 | 100 to 1000
NS(=O)(=O)OC[C@H]1C[C@@H](Nc2ncncc2C(=O)c2cc([C@@H]3OCc4ccc(Cl)cc43)c(Cl)s2)C[C@@H]1O (single isomer, unassigned) [I-310b, [(1R,2S,4R)-4-{[5-({5-chloro-4-[(1R)-6-chloro-1,3-dihydro-2-benzofuran-1-yl]-2-thienyl}carbonyl)pyrimidin-4-yl]amino}-2-hydroxycyclopentyl]methyl sulfamate or [(1R,2S,4R)-4-{[5-({5-chloro-4-[(1S)-6-chloro-1,3-dihydro-2-benzofuran-1-yl]-2-thienyl}carbonyl)pyrimidin-4-yl]amino}-2-hydroxycyclopentyl]methyl sulfamate] | 98 | < 10
CN1CCc2ccc(Cl)cc2[C@@H]1c1cc(C(=O)c2cncnc2N[C@@H]2C[C@H](COS(N)(=O)=O)[C@@H](O)C2)sc1Cl (single isomer, unassigned) [I-311a, [(1R,2S,4R)-4-{[5-({5-chloro-4-[(1R)-7-chloro-2-methyl-1,2,3,4-tetrahydroisoquinolin-1-yl]-2-thienyl}carbonyl)pyrimidin-4-yl]amino}-2-hydroxycyclopentyl]methyl sulfamate or [(1R,2S,4R)-4-{[5-({5-chloro-4-[(1S)-7-chloro-2-methyl-1,2,3,4-tetrahydroisoquinolin-1-yl]-2-thienyl}carbonyl)pyrimidin-4-yl]amino}-2-hydroxycyclopentyl]methyl sulfamate] | 65 | 10 to 100
CN1CCc2ccc(Cl)cc2[C@@H]1c1cc(C(=O)c2cncnc2N[C@@H]2C[C@H](COS(N)(=O)=O)[C@@H](O)C2)sc1Cl (single isomer, unassigned) [I-311b, [(1R,2S,4R)-4-{[5-({5-chloro-4-[(1R)-7-chloro-2-methyl-1,2,3,4-tetrahydroisoquinolin-1-yl]-2-thienyl}carbonyl)pyrimidin-4-yl]amino}-2-hydroxycyclopentyl]methyl sulfamate or [(1R,2S,4R)-4-{[5-({5-chloro-4-[(1S)-7-chloro-2-methyl-1,2,3,4-tetrahydroisoquinolin-1-yl]-2-thienyl}carbonyl)pyrimidin-4-yl]amino}-2-hydroxycyclopentyl]methyl sulfamate] | 96 | < 10
NS(=O)(=O)OC[C@H]1C[C@@H](Nc2ncncc2C(=O)c2cc([C@@H]3OCCCc4ccc(Cl)cc43)cs2)C[C@@H]1O (single isomer, unassigned) [I-314a, [(1R,2S,4R)-4-{[5-({4-[(1R)-8-chloro-1,3,4,5-tetrahydro-2-benzoxepin-1-yl]-2-thienyl}carbonyl)pyrimidin-4-yl]amino}-2-hydroxycyclopentyl]methyl sulfamate or [(1R,2S,4R)-4-{[5-({4-[(1S)-8-chloro-1,3,4,5-tetrahydro-2-benzoxepin-1-yl]-2-thienyl}carbonyl)pyrimidin-4-yl]amino}-2-hydroxycyclopentyl]methyl sulfamate] | 49 | 100 to 1000
NS(=O)(=O)OC[C@H]1C[C@@H](Nc2ncncc2C(=O)c2cc([C@@H]3OCCCc4ccc(Cl)cc43)cs2)C[C@@H]1O (single isomer, unassigned) [I-314b, [(1R,2S,4R)-4-{[5-({4-[(1R)-8-chloro-1,3,4,5-tetrahydro-2-benzoxepin-1-yl]-2-thienyl}carbonyl)pyrimidin-4-yl]amino}-2-hydroxycyclopentyl]methyl sulfamate or [(1R,2S,4R)-4-{[5-({4-[(1S)-8-chloro-1,3,4,5-tetrahydro-2-benzoxepin-1-yl]-2-thienyl}carbonyl)pyrimidin-4-yl]amino}-2-hydroxycyclopentyl]methyl sulfamate] | 98 | < 10
NS(=O)(=O)OC[C@H]1C[C@@H](Nc2ncncc2C(=O)c2cc(C3SCCc4ccc(Cl)cc43)cs2)C[C@@H]1O (single isomer, unassigned) [I-320a, [(1R,2S,4R)-4-{[5-({4-[(1R)-7-chloro-3,4-dihydro-1H-isothiochromen-1-yl]-2-thienyl}carbonyl)pyrimidin-4-yl]amino}-2-hydroxycyclopentyl]methyl sulfamate or [(1R,2S,4R)-4-{[5-({4-[(1S)-7-chloro-3,4-dihydro-1H-isothiochromen-1-yl]-2-thienyl}carbonyl)pyrimidin-4-yl]amino}-2-hydroxycyclopentyl]methyl sulfamate] | 27 | 100 to 1000
NS(=O)(=O)OC[C@H]1C[C@@H](Nc2ncncc2C(=O)c2cc(C3SCCc4ccc(Cl)cc43)cs2)C[C@@H]1O (single isomer, unassigned) [I-320b, [(1R,2S,4R)-4-{[5-({4-[(1R)-7-chloro-3,4-dihydro-1H-isothiochromen-1-yl]-2-thienyl}carbonyl)pyrimidin-4-yl]amino}-2-hydroxycyclopentyl]methyl sulfamate or [(1R,2S,4R)-4-{[5-({4-[(1S)-7-chloro-3,4-dihydro-1H-isothiochromen-1-yl]-2-thienyl}carbonyl)pyrimidin-4-yl]amino}-2-hydroxycyclopentyl]methyl sulfamate] | 93 | < 10
NS(=O)(=O)OC[C@H]1C[C@@H](Nc2ncncc2C(=O)c2cc([C@@H]3CCCc4ccc(Cl)cc43)cs2)C[C@@H]1O (single isomer, unassigned) [I-335a, [(1R,2S,4R)-4-{[5-({4-[(1R)-7-chloro-1,2,3,4-tetrahydronaphthalen-1-yl]-2-thienyl}carbonyl)pyrimidin-4-yl]amino}-2-hydroxycyclopentyl]methyl sulfamate or [(1R,2S,4R)-4-{[5-({4-[(1S)-7-chloro-1,2,3,4-tetrahydronaphthalen-1-yl]-2-thienyl}carbonyl)pyrimidin-4-yl]amino}-2-hydroxycyclopentyl]methyl sulfamate] | 14 | 100 to 1000
NS(=O)(=O)OC[C@H]1C[C@@H](Nc2ncncc2C(=O)c2cc([C@@H]3CCCc4ccc(Cl)cc43)cs2)C[C@@H]1O (single isomer, unassigned) [I-335b, [(1R,2S,4R)-4-{[5-({4-[(1R)-7-chloro-1,2,3,4-tetrahydronaphthalen-1-yl]-2-thienyl}carbonyl)pyrimidin-4-yl]amino}-2-hydroxycyclopentyl]methyl sulfamate or [(1R,2S,4R)-4-{[5-({4-[(1S)-7-chloro-1,2,3,4-tetrahydronaphthalen-1-yl]-2-thienyl}carbonyl)pyrimidin-4-yl]amino}-2-hydroxycyclopentyl]methyl sulfamate] | 41 | 100 to 1000
